In US20240118287A1, “ANALYSIS PLATE FOR A MASS SPECTROMETRY ANALYSIS AND ASSOCIATED METHOD FOR CHARACTERIZING MICROORGANISMS BY MASS SPECTROMETRY” (priority 2021, published 2024):
In brackets after ≈: the same amount, converted by molar mass.

Key:
Type in all cases: cell-based
Ref 1 K. pneumoniae = experiment: MIC by microdilution in broth, reference strain Ref 1; parameters: key to Phenotype (R = resistant, S = sensitive): RA signifies resistance to amoxicillin; RC signifies resistance to ceftriaxone; RM signifies resistance to meropenem; RO resistance to oxacillin; SA signifies sensitive to amoxicillin; SC signifies sensitive to ceftriaxone; SM signifies sensitive to meropenem; SO sensitive to oxacillin
Method: (§1) The minimum inhibitory concentration (MIC in μg/ml) was determined by microdilution in broth, a technique very widely used by a person skilled in the art.

Ref 2 K. pneumoniae = experiment: MIC by microdilution in broth, reference strain Ref 2; parameters: key to Phenotype (R = resistant, S = sensitive): RA signifies resistance to amoxicillin; RC signifies resistance to ceftriaxone; RM signifies resistance to meropenem; RO resistance to oxacillin; SA signifies sensitive to amoxicillin; SC signifies sensitive to ceftriaxone; SM signifies sensitive to meropenem; SO sensitive to oxacillin
Method: as §1

Ref 3 E. coli = experiment: MIC by microdilution in broth, reference strain Ref 3; parameters: key to Phenotype (R = resistant, S = sensitive): RA signifies resistance to amoxicillin; RC signifies resistance to ceftriaxone; RM signifies resistance to meropenem; RO resistance to oxacillin; SA signifies sensitive to amoxicillin; SC signifies sensitive to ceftriaxone; SM signifies sensitive to meropenem; SO sensitive to oxacillin
Method: as §1

Ref 4 E. coli = experiment: MIC by microdilution in broth, reference strain Ref 4; parameters: key to Phenotype (R = resistant, S = sensitive): RA signifies resistance to amoxicillin; RC signifies resistance to ceftriaxone; RM signifies resistance to meropenem; RO resistance to oxacillin; SA signifies sensitive to amoxicillin; SC signifies sensitive to ceftriaxone; SM signifies sensitive to meropenem; SO sensitive to oxacillin
Method: as §1

Ref 5 E. coli = experiment: MIC by microdilution in broth, reference strain Ref 5; parameters: key to Phenotype (R = resistant, S = sensitive): RA signifies resistance to amoxicillin; RC signifies resistance to ceftriaxone; RM signifies resistance to meropenem; RO resistance to oxacillin; SA signifies sensitive to amoxicillin; SC signifies sensitive to ceftriaxone; SM signifies sensitive to meropenem; SO sensitive to oxacillin; conditions: CTX-M
Method: as §1

[1] = system: Isolate 1 (Escherichia coli); experiment: Resistance characterization on functionalized analysis plate, MALDI-TOF (Example 4); conditions: threshold identification probability ≥90% for at least 3 deposits out of 4, amoxicillin 2, ceftriaxone 24, meropenem 2 μg/ml
Method: (§2) This cassette comprises a gasket so as to be able to dispose the analysis plate on a sponge impregnated to saturation with Muller-Hinton culture medium. The sponge impregnated with a culture medium serves as a support, and it is made of porous material as described in the description.
(§3) A cover was placed on the cassette containing the analysis plate so as to be clipped on the cassette and close the device without touching the top of the drops.
(§4) The analysis cassettes thus prepared were incubated in the stove at 37° C. for 2, 3, 4 or 5 hours.
(§5) At the end of the incubation step, the analysis plates are placed on very absorbent, dry blotting paper, with an absorption capacity of 25 μL·cm^−2, so that the drops present on the analysis plate are aspirated by capillarity through the analysis zones made of porous material.
(§6) 1 μl of HCCA matrix, alpha-cyano 4-hydroxycinnamic acid (VITEK®MS-CHCA, bioMérieux reference 411071) was deposited on the analysis zones, comprising the microorganisms and the antimicrobial agent, and on the calibration zones comprising the calibrant.
(§7) The analysis plate is then dried and analyzed by VITEK®MS as described in example 1.
(§8) The isolates identified in example 1 were diluted to 0.5 McFarland (McF) in Muller-Hinton medium (bioMérieux reference AEB 110699), then diluted again to 1/100° for the Gram-negative bacteria and to 1/10° for the Gram-positive bacteria, always in Muller-Hinton medium.
(§9) Drops of 2 μl of the final dilutions were deposited on the analysis zones of the analysis plates according to the invention as described in example 2. As before, the dilutions of E. coli and of K. pneumoniae were analyzed on the targets with 16 deposits of amoxicillin, 16 deposits of ceftriaxone and 16 deposits of meropenem. The dilutions of Staphylococci were analyzed on the targets with 2 μg/ml of oxacillin.
(§10) The analysis was carried out according to the same procedure as in example 3 with an incubation of 4 h for all the microorganisms. Moreover, the results were interpreted as in example 3, i.e. with a threshold of identification probability greater than or equal to 90% for at least 3 deposits out of 4.

[2] = system: Isolate 3 (Escherichia coli); experiment: as above; conditions: threshold identification probability ≥90% for at least 3 deposits out of 4, amoxicillin 2, ceftriaxone 24, meropenem 2 μg/ml
Method: as §2, §3, §4, §5, §6, §7, §8, §9, §10

[3] = system: Isolate 5 (Escherichia coli); experiment: as above; conditions: isolate 5 (E. coli); threshold identification probability ≥90% for at least 3 deposits out of 4; amoxicillin 2, ceftriaxone 24, meropenem 2 μg/ml
Method: as §2, §3, §4, §5, §6, §7, §8, §9, §10

[4] = system: Isolate 7 (Klebsiella pneumoniae); experiment: as above; conditions: isolate 7 (K. pneumoniae); threshold identification probability ≥90% for at least 3 deposits out of 4; amoxicillin 2, ceftriaxone 24, meropenem 2 μg/ml
Method: as §2, §3, §4, §5, §6, §7, §8, §9, §10

[5] = system: Isolate 8 (Klebsiella pneumoniae); experiment: as above; conditions: isolate 8 (K. pneumoniae); threshold identification probability ≥90% for at least 3 deposits out of 4; amoxicillin 2, ceftriaxone 24, meropenem 2 μg/ml
Method: as §2, §3, §4, §5, §6, §7, §8, §9, §10

Ref 6 S. aureus = experiment: MIC by microdilution in broth, reference strain Ref 6; parameters: key to Phenotype (R = resistant, S = sensitive): RA signifies resistance to amoxicillin; RC signifies resistance to ceftriaxone; RM signifies resistance to meropenem; RO resistance to oxacillin; SA signifies sensitive to amoxicillin; SC signifies sensitive to ceftriaxone; SM signifies sensitive to meropenem; SO sensitive to oxacillin
Method: as §1

Ref 7 S. aureus = experiment: MIC by microdilution in broth, reference strain Ref 7; parameters: key to Phenotype (R = resistant, S = sensitive): RA signifies resistance to amoxicillin; RC signifies resistance to ceftriaxone; RM signifies resistance to meropenem; RO resistance to oxacillin; SA signifies sensitive to amoxicillin; SC signifies sensitive to ceftriaxone; SM signifies sensitive to meropenem; SO sensitive to oxacillin; conditions: mecA
Method: as §1

[6] = system: Isolate 10 (Staphylococcus aureus); experiment: Resistance characterization on functionalized analysis plate, MALDI-TOF (Example 4); conditions: isolate 10 (S. aureus); oxacillin 2 μg/ml; threshold identification probability ≥90% for at least 3 deposits out of 4
Method: as §2, §3, §4, §5, §6, §7, §8, §9
(§11) When no sample deposit was provided on an analysis zone, this zone is covered with a Parafilm M plastic film (Bemis North America) before putting the analysis plate in the cassette. In this way, the analysis zone was not brought into contact with the culture medium contained in the sponge impregnated to saturation. The positions unused in the first analysis thus remained usable for a subsequent analysis.
as §10

[7] = system: Isolate 11 (Staphylococcus aureus); experiment: as above; conditions: isolate 11 (S. aureus); oxacillin 2 μg/ml; threshold identification probability ≥90% for at least 3 deposits out of 4
Method: as §2, §3, §4, §5, §6, §7, §8, §9, §11, §10

[8] = system: Isolate 12 (Staphylococcus epidermidis); experiment: as above; conditions: isolate 12 (S. epidermidis); oxacillin 2 μg/ml; threshold identification probability ≥90% for at least 3 deposits out of 4
Method: as §2, §3, §4, §5, §6, §7, §8, §9, §11, §10

[9] = system: Isolate 9 (Staphylococcus aureus); experiment: as above; conditions: isolate 9 (S. aureus); oxacillin 2 μg/ml; threshold identification probability ≥90% for at least 3 deposits out of 4
Method: as §2, §3, §4, §5, §6, §7, §8, §9, §11, §10

[10] = system: Isolate 10 (Staphylococcus aureus); experiment: MIC determination on analysis plate with oxacillin concentration range, MALDI-TOF (Example 5); conditions: read-out: MIC by the method of the invention
Method: as §4, §5, §6, §7
(§12) The dilutions of Staphylococci of the reference strains and of the isolates were analyzed on the analysis plates according to the invention with 4 deposits of oxacillin at 0.125 μg/ml, 4 deposits of oxacillin at 0.25 μg/ml, 4 deposits of oxacillin at 0.5 μg/ml, 4 deposits of oxacillin at 1 μg/ml, 4 deposits of oxacillin at 2 μg/ml, 4 deposits of oxacillin at 4 μg/ml, 4 deposits of oxacillin at 8 μg/ml, 4 deposits of oxacillin at 16 μg/ml, 4 deposits of oxacillin at 32 μg/ml, 4 deposits of oxacillin at 64 μg/ml, 4 deposits of oxacillin at 128 μg/ml, 4 deposits of oxacillin at 256 μg/ml.

[11] = system: Isolate 11 (Staphylococcus aureus); experiment: as above; conditions: read-out: MIC by the method of the invention
Method: as §4, §5, §6, §7, §12

[12] = system: Isolate 12 (Staphylococcus epidermidis); experiment: as above; conditions: read-out: MIC by the method of the invention
Method: as §4, §5, §6, §7, §12

[13] = system: Isolate 9 (Staphylococcus aureus); experiment: as above; conditions: read-out: MIC by the method of the invention
Method: as §4, §5, §6, §7, §12

[14] = system: Reference strain No. 6 (S. aureus); experiment: as above
Method: as §4, §5, §6, §7, §12

[15] = system: reference strain No. 7 (S. aureus); experiment: as above
Method: as §4, §5, §6, §7, §12

[16] = Escherichia coli, microdilution in broth, read-out: Minimum inhibitory concentration (MIC in μg/ml)
[17] = Staphylococcus aureus, microdilution in broth, read-out: Minimum inhibitory concentration (MIC in μg/ml)

Q: How did the “Phenotype (R = resistant, S = sensitive)” value (Ref 1 K. pneumoniae; KPC-2) turn out when `C[C@@H](O)[C@H]1C(=O)N2C(C(=O)O)=C(S[C@@H]3CN[C@H](C(=O)N(C)C)C3)[C@H](C)[C@H]12` [Meropenem, meropenem] was run?
A: RM

Q: What about the MIC (Ref 1 K. pneumoniae; Klebsiella pneumoniae, KPC-2, microdilution in broth, read-out: Minimum inhibitory concentration (MIC in μg/ml)) of the same compound?
A: 64 µg/mL (≈ 167 µM)

Q: And the MIC (Ref 2 K. pneumoniae; Klebsiella pneumoniae, OXA-48, microdilution in broth, read-out: Minimum inhibitory concentration (MIC in μg/ml))?
A: 0.25 µg/mL (≈ 0.652 µM)

Q: And the “Phenotype (R = resistant, S = sensitive)” value (Ref 2 K. pneumoniae; OXA-48)?
A: SM

Q: What about the MIC (Ref 3 E. coli; Escherichia coli, TEM-2, microdilution in broth, read-out: Minimum inhibitory concentration (MIC in μg/ml)) of the same compound?
A: 0.5 µg/mL (≈ 1.3 µM)

Q: And the “Phenotype (R = resistant, S = sensitive)” value (Ref 3 E. coli; TEM-2)?
A: SM

Q: What about the “Phenotype (R = resistant, S = sensitive)” value (Ref 4 E. coli) of the same compound?
A: SM

Q: And the MIC (Ref 4 E. coli; [16])?
A: 0.06 µg/mL (≈ 0.156 µM)

Q: And the “Phenotype (R = resistant, S = sensitive)” value (Ref 5 E. coli)?
A: SM

Q: What about the MIC (Ref 5 E. coli; [16]) of the same compound?
A: 0.5 µg/mL (≈ 1.3 µM)

Q: What about the “Isolate characterized as resistant or sensitive to the antibiotic” value (from here on “Isolate characterized”) [1] of the same compound?
A: sensitive

Q: What about the “Isolate characterized” value [2] of the same compound?
A: sensitive

Q: What about the “Isolate characterized” value [3] of the same compound?
A: sensitive

Q: What about the “Isolate characterized” value [4] of the same compound?
A: sensitive

Q: What about the “Isolate characterized” value [5] of the same compound?
A: sensitive

Q: `Cc1onc(-c2ccccc2)c1C(=O)N[C@@H]1C(=O)N2[C@@H]1SC(C)(C)[C@@H]2C(=O)O` [Oxacillin, oxacillin] was tested. Which “Phenotype (R = resistant, S = sensitive)” value (Ref 6 S. aureus) did it give?
A: SO

Q: And the MIC (Ref 6 S. aureus; [17])?
A: 0.25 µg/mL (≈ 0.623 µM)

Q: And the MIC (Ref 7 S. aureus; [17])?
A: 128 µg/mL (≈ 319 µM)

Q: And the “Phenotype (R = resistant, S = sensitive)” value (Ref 7 S. aureus)?
A: RO

Q: And the “Isolate characterized” value [6]?
A: sensitive

Q: And the “Isolate characterized” value [7]?
A: sensitive

Q: And the “Isolate characterized” value [8]?
A: sensitive

Q: And the “Isolate characterized” value [9]?
A: resistant

Q: What about the MIC [10] of the same compound?
A: 0.25 µg/mL (≈ 0.623 µM)

Q: What about the MIC [11] of the same compound?
A: 0.5 µg/mL (≈ 1.25 µM)

Q: And the MIC [12]?
A: 0.125 µg/mL (≈ 0.311 µM)

Q: And the MIC [13]?
A: 16 µg/mL (≈ 39.9 µM)

Q: What about the MIC ([14]; Staphylococcus aureus, equals Table 2 MIC, read-out: MIC, lowest growth inhibiting concentration observed by the method of the invention) of the same compound?
A: 0.25 µg/mL (≈ 0.623 µM)

Q: What about the “Identification as S. aureus” value ([14]; higher concentrations of oxacillin (above 0.25 μg/ml)) of the same compound?
A: not identified

Q: What about the “Identification probability as S. aureus” value ([14]; oxacillin 0.125 μg/ml, in 3 deposits out of 4) of the same compound?
A: greater than 99.9%

Q: What about the “Identification probability as S. aureus” value ([14]; oxacillin 0.25 μg/ml, for 1 deposit out of 4) of the same compound?
A: greater than 99.9%

Q: What about the MIC ([15]; Staphylococcus aureus, compliant with Table 2, read-out: MIC by the method of the invention) of the same compound?
A: 128 µg/mL (≈ 319 µM)

Q: What about the “Identification probability as S. aureus” value ([15]; oxacillin 0.125 at 64 μg/ml) of the same compound?
A: 99.9%

Q: What about the “Identification as S. aureus” value ([15]; oxacillin 128 and 256 μg/ml) of the same compound?
A: not identified
